Test results taken from patent US6605628B1, “Method of using 5-(arysulfonyl)-, 5-(arylsulfanyl)-and 5-(arylsulfanyl)thiazolidine-2,4-diones for inhibition of farnesyl-protein transferase” (Wyeth Holdings Corporation, priority 2001, dated 2003).

The compounds below were run against FPTase (Homo sapiens, UniProt P49354+P49356) (assay: in vitro FTase Inhibition Assay, H-Ras used as substrate for farnesylation). Settings: Table I, read-out: IC50 H-Ras*.
Assay type: biochemical
Procedure: Enzyme test procedure: FPTase inhibition in vitro assay was performed according to James, G. L., Brown, M. S., and Goldstein, J. L., Methods in Enzymology, 1995, 255, 38-46; and Garcia, M. A., et al., J. Biol. Chem., 1993, 268, 18415-18420.
Materials—Purified FPTase (Moomaw, J. F. and Casey, P. J., J. Biol. Chem., 1992, 267, 17438-17443), purified His6-Ras, inhibitor compounds at 10 mg/ml or 10 mM in 100% DMSO, ^3H-FPP (50,000 dpm/pmol) Amersham, TCA/SDS (6%/2%), TCA (6%), Glass fiber filters ([…]), vacuum manifold or 96 well filtration plates.
Methods—1. Dilute FPTase inhibitors from stock solutions to 2.5× in 2.5% DMSO, 10 mM DTT, 0.5% octyl-B-glucoside. 2. Solution #1 is added to FPTase reaction in a volume of […]. 3. Standard reaction mix, […], contains 50 mM Tris (7.5), 10 mM ZnCl2, 3 mM MgCl2, 20 mM KCl, 5 mM DTT, 0.2% octyl-B-glucoside, 1% DMSO, […] His6-Ras, 10 ng FPTase, and various concentrations of FPTase inhibitors. 4. Incubate for 30-90 min at 25° C. 5. Stop reactions with TCA/SDS (6%/2%), hold at 4° C. for 45-60 min. 6. Filter by manifold or 96 well plate, wash filter 3-5× with TCA (6%). 7. Add scintillant to filters, measure ^3H-FPP incorporation into Ras protein.
Analysis of Results—Percent inhibition by test compounds is determined by the following:
(cpm from precipitated Ras with test compounds)−(background cpm)×100=% inhibition.
(cpm from precipitated Ras without test compounds)−(background cpm)
`O=C1NC(=O)C(CCCC#Cc2ccc(Cl)cc2)(Sc2ccc(F)cc2)S1` (centres unmarked) [Example 96, 5-[5-(4-Chlorophenyl)pent-4-ynyl]-5-(4-fluorophenylsulfanyl)-thiazolidine-2,4-dione] showed an IC50 of 700 nM. For `COc1ccc(S(=O)(=O)C2(CC#Cc3cccnc3)SC(=O)NC2=O)cc1` (centres unmarked) [Example 167, 5-(4-Methoxybenzenesulfonyl)-5-(3-pyridin-3-ylprop-2-ynyl)-thiazolidine-2,4-dione], the IC50 was 1500 nM. Work on `Cc1ccc(S(=O)(=O)C2(CC#Cc3cccs3)SC(=O)NC2=O)cc1` (centres unmarked) [Example 168, 5-(3-Thiophen-2-yl-prop-2-ynyl)-5-(toluene-4-sulfonyl)-thiazolidine-2,4-dione] yielded an IC50 of 280 nM. For `COc1ccc(S(=O)(=O)C2(CCCC#Cc3ccc(Cl)cc3)SC(=O)N(CCCn3ccnc3)C2=O)cc1` (centres unmarked) [Example 233, 5-[5-(4-Chlorophenyl)pent-4-ynyl]-3-(3-imidazol-1-yl-propyl)-5-(4-methoxybenzenesulfonyl)-thiazolidine-2,4-dione], the IC50 was 2900 nM.

Same assay, conditions: Table II, read-out: IC50 (wi. H-Ras)
In the case of `O=C1NC(=O)C(CC#Cc2ccc(Cl)cc2)(S(=O)(=O)c2ccc3ccccc3c2)S1` (centres unmarked) [Example 239, 5-[3-(4-Chloro-phenyl)-prop-2-ynyl]-5-(napthalene-2-sulfonyl)-thiazolidine-2,4-dione], the IC50 is reported as 700 nM. `O=C1NC(=O)C(CC#Cc2ccc(Cl)cc2)(S(=O)(=O)c2ccccc2)S1` (centres unmarked) [Example 240, 5-Benzenesulfonyl-5-[3-(4-chloro-phenyl)-prop-2-ynyl]-thiazolidine-2,4-dione] gave an IC50 of 500 nM. In the case of `O=C1NC(=O)C(CC#Cc2ccccc2)(S(=O)(=O)c2ccccc2)S1` (centres unmarked) [Example 241, 5-Benzenesulfonyl-5-[3-phenyl-prop-2-ynyl]-thiazolidine-2,4-dione], the IC50 is reported as 1500 nM. Work on `O=C1NC(=O)C(CC#Cc2ccccc2)(S(=O)(=O)c2ccc(Cl)cc2)S1` (centres unmarked) [Example 242, 5-(4-Chloro-benzenesulfonyl)-5-(3-phenyl-prop-2-ynyl)-thiazolidine-2,4-dione] yielded an IC50 of 1000 nM. Compound `O=C1NC(=O)C(CC#Cc2ccc(Cl)cc2)(S(=O)(=O)c2ccc(F)cc2)S1` (centres unmarked) [Example 243, 5-[3-(4-Chloro-phenyl)-prop-2-ynyl]-5-(4-fluoro-benzenesulfonyl)-thiazolidine-2,4-dione] has an IC50 of 300 nM. For `O=C1NC(=O)C(CC#Cc2ccc(Cl)cc2)(S(=O)(=O)c2ccc(Cl)cc2)S1` (centres unmarked) [Example 244, 5-(4-Chloro-benzenesulfonyl)-5-[3-(4-chloro-phenyl)-prop-2-ynyl]-thiazolidine-2,4-dione], the IC50 was 100 nM. Work on `O=C1NC(=O)C(CC#Cc2ccc(Cl)cc2)(S(=O)(=O)c2ccc(Br)cc2)S1` (centres unmarked) [Example 245, 5-(4-Bromo-benzenesulfonyl)-5-[3-(4-chloro-phenyl)-prop-2-ynyl]-thiazolidine-2,4-dione] yielded an IC50 of 50 nM. Compound `Cc1ccc(S(=O)(=O)C2(CC#Cc3ccc(F)cc3)SC(=O)NC2=O)cc1` (centres unmarked) [Example 246, 5-[3-(4-Fluoro-phenyl)-prop-2-ynyl]-5-(toluene-4-sulfonyl)-thiazolidine-2,4-dione] has an IC50 of 300 nM. `Cc1ccc(C#CCC2(S(=O)(=O)c3ccc(C)cc3)SC(=O)NC2=O)cc1` (centres unmarked) [Example 247, 5-(Toluene-4-sulfonyl)-5-[3-(p-tolyl)-prop-2-ynyl]-thiazolidine-2,4-dione] gave an IC50 of 300 nM. With `O=C1NC(=O)C(CC#Cc2ccccc2)(S(=O)(=O)c2ccc(Br)cc2)S1` (centres unmarked) [Example 248, 5-(4-Bromo-benzenesulfonyl)-5-(3-phenyl-prop-2-ynyl)-thiazolidine-2,4-dione] the IC50 was 450 nM. `COc1ccc(S(=O)(=O)C2(CC#Cc3ccc(Cl)cc3)SC(=O)NC2=O)cc1` (centres unmarked) [Example 249, 5-[3-(4-Chloro-phenyl)-prop-2-ynyl]-5-(4-methoxy-benzenesulfonyl)-thiazolidine-2,4-dione] gave an IC50 of 400 nM. `O=C1NC(=O)C(CC#Cc2ccccc2)(S(=O)(=O)c2ccc3ccccc3c2)S1` (centres unmarked) [Example 250, 5-(Naphthalene-2-sulfonyl)-5-(3-phenyl-prop-2-ynyl)-thiazolidine-2,4-dione] showed an IC50 of 1500 nM. Compound `Cc1ccc(S(=O)(=O)C2(CC#Cc3ccc(C(F)(F)F)cc3)SC(=O)NC2=O)cc1` (centres unmarked) [Example 251, 5-(Toluene-4-sulfonyl)-5-[3-(4-trifluoromethyl-phenyl)-prop-2-ynyl]-thiazolidine-2,4-dione] has an IC50 of 150 nM. With `COc1ccc(C#CCC2(S(=O)(=O)c3ccc(C)cc3)SC(=O)NC2=O)cc1` (centres unmarked) [Example 252, 5-[3-(4-Methoxy-phenyl)-prop-2-ynyl]-5-(toluene-4-sulfonyl)-thiazolidine-2,4-dione] the IC50 was 80 nM. For `Cc1ccc(S(=O)(=O)C2(CC#Cc3ccc(Br)cc3)SC(=O)NC2=O)cc1` (centres unmarked) [Example 253, 5-[3-(4-Bromo-phenyl)-prop-2-ynyl]-5-(toluene-4-sulfonyl)-thiazolidine-2,4-dione], the IC50 was 90 nM. Compound `O=C1NC(=O)C(CC#Cc2ccc(C(F)(F)F)cc2)(S(=O)(=O)c2ccccc2)S1` (centres unmarked) [Example 254, 5-Benzenesulfonyl-5-[3-(4-trifluoromethyl-phenyl)-prop-2-ynyl]-thiazolidine-2,4-dione] has an IC50 of 500 nM. `O=C1NC(=O)C(CC#Cc2ccc(F)cc2)(S(=O)(=O)c2ccc(Cl)cc2)S1` (centres unmarked) [Example 255, 5-(4-Chloro-benzenesulfonyl)-5-[3-(4-fluoro-phenyl)-prop-2-ynyl]-thiazolidine-2,4-dione] gave an IC50 of 150 nM. `Cc1cccc(S(=O)(=O)C2(CC#Cc3ccc(Cl)cc3)SC(=O)NC2=O)c1` (centres unmarked) [Example 256, 5-[3-(4-Chloro-phenyl)-prop-2-ynyl]-5-(toluene-3-sulfonyl)-thiazolidine-2,4-dione] showed an IC50 of 800 nM. Compound `Cc1ccc(S(=O)(=O)C2(CC#Cc3cccc(Cl)c3)SC(=O)NC2=O)cc1` (centres unmarked) [Example 257, 5-[3-(3-Chloro-phenyl)-prop-2-ynyl]-5-(toluene-4-sulfonyl)-thiazolidine-2,4-dione] has an IC50 of 35 nM. `O=C1NC(=O)C(CC#Cc2ccccc2Cl)(S(=O)(=O)c2ccccc2)S1` (centres unmarked) [Example 258, 5-Benzenesulfonyl-5-[3-(2-chloro-phenyl)-prop-2-ynyl]-thiazolidine-2,4-dione] showed an IC50 of 2000 nM. In the case of `O=C1NC(=O)C(CC#Cc2cc(C(F)(F)F)cc(C(F)(F)F)c2)(S(=O)(=O)c2ccccc2)S1` (centres unmarked) [Example 259, 5-Benzenesulfonyl-5-[3-(3,5-bis-trifluoromethyl-phenyl)-prop-2-ynyl]-thiazolidine-2,4-dione], the IC50 is reported as 150 nM. For `Cc1ccc(S(=O)(=O)C2(CC#Cc3cc(C(F)(F)F)cc(C(F)(F)F)c3)SC(=O)NC2=O)cc1` (centres unmarked) [Example 260, 5-[3-(3,5-bis-Trifluoromethyl-phenyl)-prop-2-ynyl]-5-(toluene-4-sulfonyl)-thiazolidine-2,4-dione], the IC50 was 100 nM. Compound `O=C1NC(=O)C(CC#Cc2cccc(Cl)c2)(S(=O)(=O)c2ccccc2)S1` (centres unmarked) [Example 261, 5-Benzenesulfonyl-5-[3-(3-chloro-phenyl)-prop-2-ynyl]-thiazolidine-2,4-dione] has an IC50 of 300 nM. In the case of `Cc1ccc(S(=O)(=O)C2(CC#Cc3ccc(Cl)cc3)SC(=O)NC2=O)cc1` (centres unmarked) [Example 262], the IC50 is reported as 70 nM. Work on `O=C1NC(=O)C(CC#Cc2ccc(Br)cc2)(S(=O)(=O)c2ccc(Cl)cc2)S1` (centres unmarked) [Example 263, 5-[3-(4-Bromo-phenyl)-prop-2-ynyl]-5-(4-chloro-benzenesulfonyl)-thiazolidine-2,4-dione] yielded an IC50 of 150 nM.
